From PMC8371902, “Phase 1 study of M2698, a p70S6K/AKT dual inhibitor, in patients with advanced cancer” (Journal of Hematology & Oncology, 2021)

Assays:
[1] = test system: patients with advanced metastatic cancer; assay: Association between PK and safety (electrocardiogram ∆QTcF, fasting glucose); format: in vivo, human
[2] = test system: advanced metastatic cancer; assay: Antitumor activity: tumor response (RECIST 1.1) and progression-free survival; format: in vivo, human
Experimental: Tumor response was assessed using RECIST 1.1. As for drugs with cytostatic antitumor activity, disease control rate was defined as the sum of stable disease (SD) and objective response rates; SD was considered clinically beneficial. Progression-free survival (PFS) was measured from treatment initiation until disease progression or death and was estimated using the Kaplan–Meier method.

[3] = in vivo
Text: A monotherapy population PK model was developed, consisting of a two-compartment model with four absorption transit compartments and first-order elimination (Additional file 1: Table S5).

[4] = All patients, M2698 monotherapy 15 mg, N=3
[5] = All patients, M2698 monotherapy 30 mg, N=3
[6] = All patients, M2698 monotherapy 60 mg, N=6
[7] = All patients, M2698 monotherapy 75 mg, N=4
[8] = All patients, M2698 monotherapy 110 mg, N=4
[9] = All patients, M2698 monotherapy 160 mg, N=6
[10] = All patients, M2698 monotherapy 200 mg, N=3
[11] = All patients, M2698 monotherapy 240 mg, N=17
[12] = All patients, M2698 monotherapy 320 mg, N=12
[13] = All patients, M2698 monotherapy 380 mg, N=4
[14] = All patients, M2698 monotherapy, Total of all dose levels, N=62
[15] = PAM+ patients with confounding markers, M2698 monotherapy 15 mg, N=1
[16] = PAM+ patients with confounding markers, M2698 monotherapy 60 mg, N=2
[17] = PAM+ patients with confounding markers, M2698 monotherapy 75 mg, N=1
[18] = PAM+ patients with confounding markers, M2698 monotherapy 110 mg, N=1
[19] = PAM+ patients with confounding markers, M2698 monotherapy 160 mg, N=2
[20] = PAM+ patients with confounding markers, M2698 monotherapy, Total of all dose levels, N=7
[21] = PAM+ patients without confounding markers, M2698 monotherapy 15 mg, N=2
[22] = PAM+ patients without confounding markers, M2698 monotherapy 30 mg, N=2
[23] = PAM+ patients without confounding markers, M2698 monotherapy 60 mg, N=2
[24] = PAM+ patients without confounding markers, M2698 monotherapy 75 mg, N=1
[25] = PAM+ patients without confounding markers, M2698 monotherapy 110 mg, N=2
[26] = PAM+ patients without confounding markers, M2698 monotherapy 160 mg, N=4
[27] = PAM+ patients without confounding markers, M2698 monotherapy 200 mg, N=3
[28] = PAM+ patients without confounding markers, M2698 monotherapy 240 mg, N=16
[29] = PAM+ patients without confounding markers, M2698 monotherapy 320 mg, N=11
[30] = PAM+ patients without confounding markers, M2698 monotherapy 380 mg, N=4
[31] = PAM+ patients without confounding markers, M2698 monotherapy, Total of all dose levels, N=47
[32] = PAM+ patients, M2698 monotherapy 15 mg, N=3
[33] = PAM+ patients, M2698 monotherapy 30 mg, N=2
[34] = PAM+ patients, M2698 monotherapy 60 mg, N=4
[35] = PAM+ patients, M2698 monotherapy 75 mg, N=2
[36] = PAM+ patients, M2698 monotherapy 110 mg, N=3
[37] = PAM+ patients, M2698 monotherapy 160 mg, N=6
[38] = PAM+ patients, M2698 monotherapy 200 mg, N=3
[39] = PAM+ patients, M2698 monotherapy 240 mg, N=16
[40] = PAM+ patients, M2698 monotherapy 320 mg, N=11
[41] = PAM+ patients, M2698 monotherapy 380 mg, N=4
[42] = PAM+ patients, M2698 monotherapy, Total of all dose levels, N=54
[43] = monotherapy, PAM+ with confounding alterations, 1/7

NC(=O)c1cccc2c(N[C@H](CN3CCC3)c3ccc(Cl)c(C(F)(F)F)c3)ncnc12 [M2698]
Changes in mean electrocardiogram data ([1]; across all cohorts): no clinically relevant changes
Correlation between exposure and fasting glucose levels ([1]; in vivo): no correlation
Patients with stable disease ([2]; 54 PAM+ patients, monotherapy): 40.7%
Median PFS [2, 4]: 4.1 months
Response, NE [2, 4]: 0 (0.0) n (%)
Response, PD [2, 4]: 1 (33.3) n (%)
Response, SD at wk 6 [2, 4]: 2 (66.7) n (%)
Median PFS [2, 5]: 4.1 months
Response, NE [2, 5]: 0 (0.0) n (%)
Response, PD [2, 5]: 0 (0.0) n (%)
Response, SD at wk 6 [2, 5]: 3 (100) n (%)
Median PFS [2, 6]: 1.4 months
Response, NE [2, 6]: 1 (16.7) n (%)
Response, PD [2, 6]: 4 (66.7) n (%)
Response, SD at wk 6 [2, 6]: 1 (16.7) n (%)
Median PFS [2, 7]: 1.4 months
Response, NE [2, 7]: 0 (0.0) n (%)
Response, PD [2, 7]: 3 (75.0) n (%)
Response, SD at wk 6 [2, 7]: 1 (25.0) n (%)
Median PFS [2, 8]: 1.3 months
Response, NE [2, 8]: 1 (25.0) n (%)
Response, PD [2, 8]: 2 (50.0) n (%)
Response, SD at wk 6 [2, 8]: 1 (25.0) n (%)
Median PFS [2, 9]: 1.6 months
Response, NE [2, 9]: 0 (0.0) n (%)
Response, PD [2, 9]: 4 (66.7) n (%)
Response, SD at wk 6 [2, 9]: 2 (33.3) n (%)
Median PFS [2, 10]: 4.1 months
Response, NE [2, 10]: 0 (0.0) n (%)
Response, PD [2, 10]: 1 (33.3) n (%)
Response, SD at wk 6 [2, 10]: 2 (66.7) n (%)
Median PFS [2, 11]: 2.0 months
Response, NE [2, 11]: 3 (17.6) n (%)
Response, PD [2, 11]: 8 (47.1) n (%)
Response, SD at wk 6 [2, 11]: 6 (35.3) n (%)
Median PFS [2, 12]: 2.8 months
Response, NE [2, 12]: 2 (16.7) n (%)
Response, PD [2, 12]: 5 (41.7) n (%)
Response, SD at wk 6 [2, 12]: 5 (41.7) n (%)
Median PFS [2, 13]: 6.2 months
Response, NE [2, 13]: 2 (50.0) n (%)
Response, PD [2, 13]: 0 (0.0) n (%)
Response, SD at wk 6 [2, 13]: 2 (50.0) n (%)
Median PFS [2, 14]: 2.3 months
Response, NE [2, 14]: 9 (14.5) n (%)
Response, PD [2, 14]: 28 (45.2) n (%)
Response, SD at wk 6 [2, 14]: 25 (40.3) n (%)
Response, NE [2, 15]: 0 (0.0) n (%)
Response, PD [2, 15]: 0 (0.0) n (%)
Median PFS [2, 16]: 1.4 months
Response, NE [2, 16]: 1 (50.0) n (%)
Response, PD [2, 16]: 1 (50.0) n (%)
Median PFS [2, 17]: 1.4 months
Response, NE [2, 17]: 0 (0.0) n (%)
Response, PD [2, 17]: 1 (100) n (%)
Median PFS [2, 18]: 1.3 months
Response, NE [2, 18]: 0 (0.0) n (%)
Response, PD [2, 18]: 1 (100) n (%)
Median PFS [2, 19]: 1.4 months
Response, NE [2, 19]: 0 (0.0) n (%)
Response, PD [2, 19]: 2(100.0) n (%)
Median PFS [2, 20]: 1.4 months
Response, NE [2, 20]: 1 (14.3) n (%)
Response, PD [2, 20]: 5 (71.4) n (%)
Median PFS [2, 21]: 4.1 months
Response, NE [2, 21]: 0 (0.0) n (%)
Response, PD [2, 21]: 1 (50.0) n (%)
Response, SD at wk 6 [2, 21]: 1 (50.0) n (%)
Median PFS [2, 22]: 10.3 months
Response, NE [2, 22]: 0 (0.0) n (%)
Response, PD [2, 22]: 0 (0.0) n (%)
Response, SD at wk 6 [2, 22]: 2 (100.0) n (%)
Median PFS [2, 23]: 1.4 months
Response, NE [2, 23]: 0 (0.0) n (%)
Response, PD [2, 23]: 2(100.0) n (%)
Response, SD at wk 6 [2, 23]: 0 (0.0) n (%)
Median PFS [2, 24]: 2.8 months
Response, NE [2, 24]: 0 (0.0) n (%)
Response, PD [2, 24]: 0 (0.0) n (%)
Response, SD at wk 6 [2, 24]: 1(100.0) n (%)
Median PFS [2, 25]: 15.1 months
Response, NE [2, 25]: 1 (50.0) n (%)
Response, PD [2, 25]: 0 (0.0) n (%)
Response, SD at wk 6 [2, 25]: 1 (50.0) n (%)
Response, NE [2, 26]: 0 (0.0) n (%)
Response, PD [2, 26]: 2 (50.0) n (%)
Response, SD at wk 6 [2, 26]: 2 (50.0) n (%)
Median PFS [2, 27]: 4.1 months
Response, NE [2, 27]: 0 (0.0) n (%)
Response, PD [2, 27]: 1 (33.3) n (%)
Response, SD at wk 6 [2, 27]: 2 (66.7) n (%)
Median PFS [2, 28]: 1.9 months
Response, NE [2, 28]: 3 (18.8) n (%)
Response, PD [2, 28]: 8 (50.0) n (%)
Response, SD at wk 6 [2, 28]: 5 (31.3) n (%)
Median PFS [2, 29]: 2.8 months
Response, NE [2, 29]: 1 (9.1) n (%)
Response, PD [2, 29]: 5 (45.5) n (%)
Response, SD at wk 6 [2, 29]: 5 (45.5) n (%)
Median PFS [2, 30]: 6.2 months
Response, NE [2, 30]: 2 (50.0) n (%)
Response, PD [2, 30]: 0 (0.0) n (%)
Response, SD at wk 6 [2, 30]: 2 (50.0) n (%)
Median PFS [2, 31]: 2.8 months
Response, NE [2, 31]: 7 (14.9) n (%)
Response, PD [2, 31]: 19 (40.4) n (%)
Response, SD at wk 6 [2, 31]: 21 (44.7) n (%)
Clinical benefit rate ([2]; PAM+ patients, monotherapy): 40.7%
Median PFS [2, 32]: 4.1 months
Response, NE [2, 32]: 0 (0.0) n (%)
Response, PD [2, 32]: 1 (33.3) n (%)
Response, SD at wk 6 [2, 32]: 2 (66.7) n (%)
Median PFS [2, 33]: 10.3 months
Response, NE [2, 33]: 0 (0.0) n (%)
Response, PD [2, 33]: 0 (0.0) n (%)
Response, SD at wk 6 [2, 33]: 2 (100) n (%)
Median PFS [2, 34]: 1.4 months
Response, NE [2, 34]: 1 (25.0) n (%)
Response, PD [2, 34]: 3 (75.0) n (%)
Response, SD at wk 6 [2, 34]: 0 (0.0) n (%)
Median PFS [2, 35]: 2.1 months
Response, NE [2, 35]: 0 (0.0) n (%)
Response, PD [2, 35]: 1 (50.0) n (%)
Response, SD at wk 6 [2, 35]: 1 (50.0) n (%)
Median PFS [2, 36]: 8.2 months
Response, NE [2, 36]: 1 (33.3) 1 (33.3) 1 (33.3) n (%)
Response, PD [2, 36]: 1 (33.3) 1 (33.3) 1 (33.3) n (%)
Response, SD at wk 6 [2, 36]: 1 (33.3) 1 (33.3) 1 (33.3) n (%)
Median PFS [2, 37]: 1.6 months
Response, NE [2, 37]: 0 (0.0) n (%)
Response, PD [2, 37]: 4 (66.7) n (%)
Response, SD at wk 6 [2, 37]: 2 (33.3) n (%)
Median PFS [2, 38]: 4.1 months
Response, NE [2, 38]: 0 (0.0) n (%)
Response, PD [2, 38]: 1 (33.3) n (%)
Response, SD at wk 6 [2, 38]: 2 (66.7) n (%)
Median PFS [2, 39]: 1.9 months
Response, NE [2, 39]: 3 (18.8) n (%)
Response, PD [2, 39]: 8 (50.0) n (%)
Response, SD at wk 6 [2, 39]: 5 (31.3) n (%)
Median PFS [2, 40]: 2.8 months
Response, NE [2, 40]: 1 (9.1) n (%)
Response, PD [2, 40]: 5 (45.5) n (%)
Response, SD at wk 6 [2, 40]: 5 (45.5) n (%)
Median PFS [2, 41]: 6.2 months
Response, NE [2, 41]: 2 (50.0) n (%)
Response, PD [2, 41]: 0 (0.0) n (%)
Response, SD at wk 6 [2, 41]: 2 (50.0) n (%)
Median PFS [2, 42]: 2.4 months
Response, NE [2, 42]: 8 (14.8) n (%)
Response, PD [2, 42]: 24 (44.4) n (%)
Response, SD at wk 6 [2, 42]: 22 (40.7) n (%)
Overall clinical benefit rate at 12 weeks ([2]; in vivo): 27.4%
Patients with stable disease at 12 weeks ([2]; monotherapy cohort): 27.4%
Patients with stable disease ([2]; monotherapy cohort overall): 40.3%
Objective response ([2]; monotherapy cohort, RECIST 1.1): no objective responses were noted
Median PFS ([2]; monotherapy overall): 2.3 months
Median PFS ([2]; monotherapy, PAM+ patients): 2.4 months
Stable disease at 6 weeks [2, 43]: 14.3%
Stable disease at 12 weeks [2, 43]: 14.3%
Stable disease at 12 weeks ([2]; monotherapy, PAM+ without confounding alterations, 14/47): 29.8%
Stable disease at 6 weeks ([2]; monotherapy, PAM+ without confounding alterations, 21/47): 44.7%
PFS of the five patients with PFS ≥ 6 months ([2]; monotherapy, all PAM+ without confounding alterations): 7.1–16.4 months
Median PFS, PAM+ patients with confounding alterations (KRAS, EGFR, AKT2) ([2]; monotherapy, n = 7): 1.4 months
Median PFS, PAM+ patients without confounding alterations ([2]; monotherapy, n = 47): 2.8 months
Additive RSV (residual variability), population PK estimate [3]: 3.44
Proportional RSV (residual variability), population PK estimate [3]: 0.163
